# Reference: US8361968B2 (Takeda Pharmaceutical Company Limited, priority 2002, dated 2013)
# Numbered stars: 1 amine (or outer) side, 2 acyl side, 3 side chain; on linkers, the order of the positions; unused ones are H or OH. Square brackets hold non-standard residues; d marks the D form. Peptide text beside a SMILES is read from it. * marks the point of attachment. X11 = O=C(CNC(=S)[C@H](Cc1ccccc1)N[*:1])[*:2]; 1Nal = N[C@@H](Cc1cccc2ccccc12)C(=O)O; Arg(Me) = CNC(=N)NCCC[C@H](N)C(=O)O; Cha = N[C@@H](CC1CCCCC1)C(=O)O; X2 = O=C(Cc1c[nH]c2ccccc12)*; azaGly = NNC(=O)O
# What was measured:
# in vitro = conditions: female, Balb/c, mouse, serum
# Protocol: Blood was drawn from Balb/c mice (female) of 8 weeks old, settled at 37° C. for 30 minutes and centrifuged at 13000 rpm for 10 minutes to give the serum as the supernatant. The serum thus obtained was frozen-stored at −80° C.
# The stability test was performed by addition of 5 nmol of Compound (5 μL of aqueous solution) to 45 μL of serum and then settlement of the mixture at 37° C. The settlement was made at 3 points of time, including 2, 10 and 30 minutes. The sample after the settlement was boiled for 3 minutes and cooled on an ice bath. After 200 μL of acetonitrile/water (3/1) was added to the sample, the mixture was ultrasonicated for 5 minutes and then centrifuged at 5000 rpm for 1 minute. After 150 μL of the supernatant was diluted with 250 μL of distilled water, insoluble matters were removed by filtration through a filter having a pore size of 0.45 μm and 200 μL of the filtrate was applied on HPLC (220 nm) to determine the peak area of Compound. A ratio of the peak area to the area when Compound was treated for 0 minute under the same conditions was calculated as a mean value in 4 respective runs to determine the residual ratio. Next, by taking the calculated residual ratio on the ordinate and the time on the abscissa, a graph was prepared and approximated by an exponential function.
# The preparative HPLC used was the LC-VP series manufactured by Shimadzu Corporation and Wakosil-II 5C18 HG (4.6 mm×100 mm) manufactured by Wako Pure Chemical Industries, Ltd. was used as the column. Eluant A (0.1% TFA-containing water) and eluant B (0.1% TFA-containing acetonitrile) were used as eluants. Analysis was performed by linear density gradient elution (25 minutes) at a flow rate of 1.0 ml/min. using eluants A/B: 100/0-0/50.
# hOT7T175 [1] = biological target: T1, hOT7T175 (Homo sapiens, UniProt Q969F8, L364H); test: hOT7T175 receptor binding activity: binding inhibition of Cy-5-labeled metastin (40-54) on hOT7T175-expressed CHO cells; set-up: expressed in transfected cells; host or cells: CHO cells
# hOT7T175 [2] = biological target: T1, hOT7T175; test: Intracellular Ca ion level-increasing activity using FLIPR in hOT7T175/CHO; format: cell-based; set-up: expressed in transfected cells; host or cells: CHO/dhfr- cells, obtained from ATCC; conditions: relative, Metastin (1-54) = 1
# T1 sequence (Q969F8 whole entry L364H): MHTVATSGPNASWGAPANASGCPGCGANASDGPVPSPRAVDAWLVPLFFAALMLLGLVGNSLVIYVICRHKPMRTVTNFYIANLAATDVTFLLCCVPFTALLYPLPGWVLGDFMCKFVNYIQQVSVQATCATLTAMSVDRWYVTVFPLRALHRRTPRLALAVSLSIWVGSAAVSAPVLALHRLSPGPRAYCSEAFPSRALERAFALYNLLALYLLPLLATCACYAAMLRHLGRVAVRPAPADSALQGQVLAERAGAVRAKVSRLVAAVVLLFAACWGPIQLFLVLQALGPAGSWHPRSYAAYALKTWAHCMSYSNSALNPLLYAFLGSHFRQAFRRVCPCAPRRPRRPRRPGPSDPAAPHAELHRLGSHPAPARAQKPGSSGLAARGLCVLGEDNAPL
Compound,half-life at 100 µM (in vitro) [min],IC50 (hOT7T175 [1]) [nM],Specific Activity (intracellular Ca ion level-increasing activity) (hOT7T175 [2])
"CC[C@H](C)[C@H](NC(=O)[C@H](CCC(N)=O)NC(=O)[C@H](CCCNC(=N)N)NC(=O)[C@H](CO)NC(=O)[C@H](Cc1c[nH]cn1)NC(=O)[C@@H]1CCCN1C(=O)[C@H](C)NC(=O)[C@H](CO)NC(=O)[C@H](CC(C)C)NC(=O)CNC(=O)[C@@H]1CCCN1C(=O)[C@H](CCC(N)=O)NC(=O)[C@H](CCC(N)=O)NC(=O)[C@H](CCCNC(=N)N)NC(=O)[C@H](CO)NC(=O)CNC(=O)[C@H](CO)NC(=O)[C@H](CO)NC(=O)[C@H](CCC(=O)O)NC(=O)[C@@H]1CCCN1C(=O)[C@@H]1CCCN1C(=O)[C@@H]1CCCN1C(=O)[C@H](CO)NC(=O)[C@H](CC(C)C)NC(=O)[C@H](CO)NC(=O)[C@@H](NC(=O)CN)[C@@H](C)O)C(=O)N1CCC[C@H]1C(=O)N[C@@H](C)C(=O)N1CCC[C@H]1C(=O)N[C@@H](CCC(N)=O)C(=O)NCC(=O)N[C@@H](C)C(=O)N[C@H](C(=O)N[C@@H](CC(C)C)C(=O)N[C@H](C(=O)N[C@@H](CCC(N)=O)C(=O)N[C@@H](CCCNC(=N)N)C(=O)N[C@@H](CCC(=O)O)C(=O)N[C@@H](CCCCN)C(=O)N[C@@H](CC(=O)O)C(=O)N[C@@H](CC(C)C)C(=O)N1CCC[C@H]1C(=O)N[C@@H](CC(N)=O)C(=O)N[C@@H](Cc1ccc(O)cc1)C(=O)N[C@@H](CC(N)=O)C(=O)N[C@@H](Cc1c[nH]c2ccccc12)C(=O)N[C@@H](CC(N)=O)C(=O)N[C@@H](CO)C(=O)N[C@@H](Cc1ccccc1)C(=O)NCC(=O)N[C@@H](CC(C)C)C(=O)N[C@@H](CCCNC(=N)N)C(=O)N[C@@H](Cc1ccccc1)C(N)=O)C(C)C)C(C)C [Compound No. 1, Metastin, reference compound]",22.5,–,–
"CNC(N)=NCCC[C@H](NC(=O)[C@H](CC(C)C)NC(=O)CNC(=S)[C@H](Cc1ccccc1)NC(=O)[C@H](CO)NC(=O)[C@H](CC(N)=O)NC(=O)[C@H](Cc1c[nH]c2ccccc12)NC(=O)[C@H](CC(N)=O)NC(=O)[C@H](N)Cc1ccc(O)cc1)C(=O)N[C@@H](Cc1ccccc1)C(N)=O [Compound No. 296, D-Tyr-Asn-Trp-Asn-Ser-PheΨ(CSNH)Gly-Leu-Arg(Me)-Phe-NH2] (H-[dY]NWNS[X11]L[Arg(Me)]F-NH2)",47.2,–,–
"CC(C)C[C@H](NC(=O)CNC(=O)[C@H](Cc1ccccc1)NC(=O)[C@H](CO)NC(=O)[C@H](CC(N)=O)NC(=O)[C@H](Cc1cn(C=O)c2ccccc12)NC(=O)[C@H](CC(N)=O)NC(=O)[C@@H](N)Cc1ccc(O)cc1)C(=O)N[C@@H](CCCNC(=N)N)C(=O)N[C@@H](Cc1ccc(C#N)cc1)C(N)=O [Compound No. 78, Tyr-Asn-Trp(For)-Asn-Ser-Phe-Gly-Leu-Arg-Phe(4CN)-NH2]",–,25,10
"CNC(=N)NCCC[C@H](NC(=O)[C@H](CC(C)C)NC(=O)CNC(=O)[C@H](CC1CCCCC1)NC(=O)[C@H](CO)NC(=O)[C@H](CC(N)=O)NC(=O)[C@H](CC1CCCCC1)NC(=O)[C@H](CC(N)=O)NC(=O)[C@H](N)Cc1ccc(O)cc1)C(=O)N[C@@H](Cc1c[nH]c2ccccc12)C(N)=O [Compound No. 182, D-Tyr-Asn-Cha-Asn-Ser-Cha-Gly-Leu-Arg(Me)-Trp-NH2] (H-[dY]N[Cha]NS[Cha]GL[Arg(Me)]W-NH2)",–,98,5
"CNC(=N)NCCC[C@H](NC(=O)[C@H](CC(C)C)NC(=O)NNC(=O)[C@H](Cc1ccccc1)NC(=O)[C@H](CO)NC(=O)[C@H](CC(N)=O)NC(=O)Cc1c[nH]c2ccccc12)C(=O)N[C@@H](Cc1ccccc1)C(N)=O [Compound No. 266, Indol-3-acetyl-Asn-Ser-Phe-AzaGly-Leu-Arg(Me)-Phe-NH2] (X2-NSF[azaGly]L[Arg(Me)]F-NH2)",–,230,2
CC(C)C[C@H](NC(=O)CNC(=O)[C@H](Cc1ccccc1)NC(=O)[C@H](CO)NC(=O)[C@H](CC(N)=O)NC(=O)[C@H](Cc1c[nH]c2ccccc12)NC(=O)[C@H](CC(N)=O)NC(=O)[C@@H](N)Cc1ccc(O)cc1)C(=O)N[C@@H](CCCNC(=N)N)C(=O)N[C@@H](Cc1cccc2ccccc12)C(N)=O [Compound No. 133] (H-YNWNSFGLR[1Nal]-NH2),–,330,3
